How the values were obtained:
[1] = target: T1, Dual specificity tyrosine-phosphorylation-regulated kinase 3 (Homo sapiens, UniProt O43781)
T1 sequence (O43781 whole entry): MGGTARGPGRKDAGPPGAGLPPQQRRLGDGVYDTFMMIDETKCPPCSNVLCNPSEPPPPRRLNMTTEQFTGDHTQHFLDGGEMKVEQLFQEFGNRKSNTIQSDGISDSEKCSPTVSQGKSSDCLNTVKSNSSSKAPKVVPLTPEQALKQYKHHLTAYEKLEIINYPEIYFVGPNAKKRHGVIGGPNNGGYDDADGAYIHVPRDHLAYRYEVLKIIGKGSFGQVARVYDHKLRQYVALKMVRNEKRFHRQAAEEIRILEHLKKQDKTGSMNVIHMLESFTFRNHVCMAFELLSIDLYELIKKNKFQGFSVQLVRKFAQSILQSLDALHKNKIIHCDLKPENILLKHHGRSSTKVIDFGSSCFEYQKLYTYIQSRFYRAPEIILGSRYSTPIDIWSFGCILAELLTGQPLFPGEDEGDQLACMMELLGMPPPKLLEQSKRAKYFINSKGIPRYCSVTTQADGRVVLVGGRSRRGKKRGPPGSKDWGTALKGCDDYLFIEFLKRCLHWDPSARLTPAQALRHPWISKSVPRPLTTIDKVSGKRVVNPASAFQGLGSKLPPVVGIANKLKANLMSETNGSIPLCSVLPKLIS

[2] = target: Dual specificity protein kinase CLK3 (Homo sapiens, UniProt P49761); type: cell-based, Sf9
[3] = target: Dual specificity protein kinase CLK2 (Homo sapiens, UniProt P49760)
[4] = target: Cyclin-dependent kinase 5/CDK5 activator 1 (Homo sapiens, UniProt Q00535); type: cell-based, Sf9
[5] = target: T2, Dual specificity tyrosine-phosphorylation-regulated kinase 4 (Homo sapiens, UniProt Q9NR20)
T2 sequence (Q9NR20 whole entry): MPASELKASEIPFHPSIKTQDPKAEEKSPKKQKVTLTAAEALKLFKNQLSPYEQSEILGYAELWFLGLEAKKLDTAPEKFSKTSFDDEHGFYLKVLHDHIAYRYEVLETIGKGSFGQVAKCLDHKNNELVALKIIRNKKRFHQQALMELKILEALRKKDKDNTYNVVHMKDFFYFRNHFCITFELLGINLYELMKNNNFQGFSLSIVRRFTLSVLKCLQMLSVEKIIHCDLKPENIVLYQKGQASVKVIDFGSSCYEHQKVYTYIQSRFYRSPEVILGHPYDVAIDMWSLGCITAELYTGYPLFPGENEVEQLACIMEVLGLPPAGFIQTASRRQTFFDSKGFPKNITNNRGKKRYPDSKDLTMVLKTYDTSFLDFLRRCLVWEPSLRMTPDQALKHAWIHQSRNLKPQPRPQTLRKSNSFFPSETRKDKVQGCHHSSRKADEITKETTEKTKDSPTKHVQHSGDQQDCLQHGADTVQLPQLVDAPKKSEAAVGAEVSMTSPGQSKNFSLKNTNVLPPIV

[6] = target: Glycogen synthase kinase-3 beta (Homo sapiens, UniProt P49841); type: cell-based, Sf9
[7] = target: Casein kinase I isoform epsilon (Homo sapiens, UniProt P49674)
[8] = target: Dual specificity protein kinase CLK4 (Homo sapiens, UniProt Q9HAZ1)
[9] = target: T3, Dual specificity tyrosine-phosphorylation-regulated kinase 2 (Homo sapiens, UniProt Q92630)
T3 sequence (Q92630 whole entry): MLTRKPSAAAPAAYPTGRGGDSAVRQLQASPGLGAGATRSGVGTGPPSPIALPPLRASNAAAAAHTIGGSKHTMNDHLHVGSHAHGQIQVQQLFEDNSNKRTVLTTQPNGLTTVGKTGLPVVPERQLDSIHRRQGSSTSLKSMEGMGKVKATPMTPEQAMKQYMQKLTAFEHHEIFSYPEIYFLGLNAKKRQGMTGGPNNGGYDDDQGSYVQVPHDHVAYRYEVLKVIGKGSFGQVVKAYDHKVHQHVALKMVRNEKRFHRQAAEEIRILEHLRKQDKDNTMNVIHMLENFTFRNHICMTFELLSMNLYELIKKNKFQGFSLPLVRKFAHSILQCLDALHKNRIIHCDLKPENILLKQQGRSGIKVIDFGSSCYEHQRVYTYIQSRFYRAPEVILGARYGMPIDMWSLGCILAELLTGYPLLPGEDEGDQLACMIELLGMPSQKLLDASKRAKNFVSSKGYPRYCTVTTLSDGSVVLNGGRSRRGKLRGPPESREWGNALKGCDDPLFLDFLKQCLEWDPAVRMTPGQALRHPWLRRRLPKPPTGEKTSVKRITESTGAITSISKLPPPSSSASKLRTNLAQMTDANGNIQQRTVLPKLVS

Chain of Dual specificity protein kinase CLK3 (P49761 whole entry): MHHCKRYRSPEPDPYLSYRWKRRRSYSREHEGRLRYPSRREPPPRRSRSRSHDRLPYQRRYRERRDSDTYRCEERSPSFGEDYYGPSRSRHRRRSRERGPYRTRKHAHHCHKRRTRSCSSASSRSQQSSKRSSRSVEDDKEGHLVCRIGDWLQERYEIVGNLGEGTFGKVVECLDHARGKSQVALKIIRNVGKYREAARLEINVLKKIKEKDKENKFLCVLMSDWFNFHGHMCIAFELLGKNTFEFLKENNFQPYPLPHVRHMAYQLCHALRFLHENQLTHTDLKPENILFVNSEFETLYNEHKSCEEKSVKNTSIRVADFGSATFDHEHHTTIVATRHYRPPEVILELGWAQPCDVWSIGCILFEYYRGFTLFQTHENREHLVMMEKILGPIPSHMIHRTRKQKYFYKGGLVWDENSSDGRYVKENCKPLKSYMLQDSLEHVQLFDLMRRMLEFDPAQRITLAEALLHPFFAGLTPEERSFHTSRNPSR
Chain of Dual specificity protein kinase CLK2 (P49760 whole entry): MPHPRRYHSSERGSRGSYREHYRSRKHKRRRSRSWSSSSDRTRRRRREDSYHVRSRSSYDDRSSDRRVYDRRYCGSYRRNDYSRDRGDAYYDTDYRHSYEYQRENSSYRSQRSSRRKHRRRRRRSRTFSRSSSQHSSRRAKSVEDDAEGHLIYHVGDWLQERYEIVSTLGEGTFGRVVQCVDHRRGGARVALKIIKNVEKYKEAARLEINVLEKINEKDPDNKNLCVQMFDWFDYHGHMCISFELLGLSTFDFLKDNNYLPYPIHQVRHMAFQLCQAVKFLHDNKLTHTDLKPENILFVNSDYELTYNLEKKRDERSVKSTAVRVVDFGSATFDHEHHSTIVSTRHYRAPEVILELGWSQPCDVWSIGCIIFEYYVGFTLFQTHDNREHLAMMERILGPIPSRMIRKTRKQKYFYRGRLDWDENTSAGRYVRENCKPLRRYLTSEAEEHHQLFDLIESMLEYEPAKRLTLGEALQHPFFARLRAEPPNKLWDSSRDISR
Chain of Glycogen synthase kinase-3 beta (P49841 whole entry, canonical isoform): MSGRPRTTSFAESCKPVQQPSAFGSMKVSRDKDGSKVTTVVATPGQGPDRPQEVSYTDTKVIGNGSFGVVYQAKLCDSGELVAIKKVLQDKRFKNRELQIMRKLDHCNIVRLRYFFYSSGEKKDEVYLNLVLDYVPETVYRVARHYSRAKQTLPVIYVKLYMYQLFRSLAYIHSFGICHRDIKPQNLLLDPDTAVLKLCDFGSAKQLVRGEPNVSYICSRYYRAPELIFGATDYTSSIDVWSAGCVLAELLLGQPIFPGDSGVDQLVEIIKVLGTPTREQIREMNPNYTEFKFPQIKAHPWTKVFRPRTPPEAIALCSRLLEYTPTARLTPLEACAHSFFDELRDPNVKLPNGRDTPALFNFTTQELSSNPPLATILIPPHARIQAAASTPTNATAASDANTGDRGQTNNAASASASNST
Chain of Dual specificity protein kinase CLK4 (Q9HAZ1 whole entry): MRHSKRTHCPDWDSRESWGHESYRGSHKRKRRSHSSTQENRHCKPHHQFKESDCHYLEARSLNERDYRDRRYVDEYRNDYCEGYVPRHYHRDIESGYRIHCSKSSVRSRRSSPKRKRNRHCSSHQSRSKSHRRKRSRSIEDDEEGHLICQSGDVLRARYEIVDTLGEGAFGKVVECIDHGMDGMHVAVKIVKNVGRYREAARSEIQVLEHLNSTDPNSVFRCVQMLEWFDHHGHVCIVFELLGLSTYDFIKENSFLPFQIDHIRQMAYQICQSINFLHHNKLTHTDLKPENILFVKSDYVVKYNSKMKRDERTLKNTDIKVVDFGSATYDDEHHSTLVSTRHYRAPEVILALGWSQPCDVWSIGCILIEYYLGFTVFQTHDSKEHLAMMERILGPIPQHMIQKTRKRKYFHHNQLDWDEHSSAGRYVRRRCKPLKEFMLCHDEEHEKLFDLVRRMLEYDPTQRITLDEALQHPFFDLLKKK
Chain of Casein kinase I isoform epsilon (P49674 whole entry, canonical isoform): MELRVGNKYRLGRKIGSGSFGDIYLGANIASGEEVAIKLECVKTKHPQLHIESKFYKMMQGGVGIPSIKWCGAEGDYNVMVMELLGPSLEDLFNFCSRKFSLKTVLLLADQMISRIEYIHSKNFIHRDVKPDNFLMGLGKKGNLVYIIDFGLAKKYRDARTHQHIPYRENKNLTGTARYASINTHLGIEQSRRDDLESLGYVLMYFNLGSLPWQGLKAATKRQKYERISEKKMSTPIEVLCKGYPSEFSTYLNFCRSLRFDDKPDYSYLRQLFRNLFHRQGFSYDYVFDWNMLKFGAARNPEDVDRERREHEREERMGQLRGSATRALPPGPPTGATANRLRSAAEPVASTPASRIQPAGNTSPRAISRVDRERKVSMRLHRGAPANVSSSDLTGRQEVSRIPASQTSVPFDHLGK
Chain of Cyclin-dependent kinase 5/CDK5 activator 1 (Q00535 whole entry): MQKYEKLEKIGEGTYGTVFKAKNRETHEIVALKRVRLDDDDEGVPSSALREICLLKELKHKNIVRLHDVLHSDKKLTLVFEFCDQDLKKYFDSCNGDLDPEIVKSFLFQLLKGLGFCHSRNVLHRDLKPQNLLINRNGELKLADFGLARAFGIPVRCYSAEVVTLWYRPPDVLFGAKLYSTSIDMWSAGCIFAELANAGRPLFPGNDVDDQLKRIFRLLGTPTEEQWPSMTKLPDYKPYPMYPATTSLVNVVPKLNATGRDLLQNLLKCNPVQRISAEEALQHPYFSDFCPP
Chain of Cyclin-dependent kinase 5/CDK5 activator 1 (Q15078 whole entry, further chain): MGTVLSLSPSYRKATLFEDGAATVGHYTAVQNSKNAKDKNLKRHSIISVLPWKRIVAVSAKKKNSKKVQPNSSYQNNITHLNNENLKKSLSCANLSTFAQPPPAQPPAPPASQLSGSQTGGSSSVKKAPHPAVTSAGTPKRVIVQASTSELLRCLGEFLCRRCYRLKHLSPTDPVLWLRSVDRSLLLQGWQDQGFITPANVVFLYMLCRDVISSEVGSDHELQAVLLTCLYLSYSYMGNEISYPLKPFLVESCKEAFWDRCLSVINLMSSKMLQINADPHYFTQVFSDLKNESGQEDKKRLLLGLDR

Row | Structure (SMILES) | IC50 [1] | IC50 [2] | IC50 [3] | IC50 [4] | IC50 [5] | IC50 [6] | IC50 [7] | IC50 [8] | IC50 [9]
1 | CC(C)[C@@H]1CC[C@@H](C)C[C@H]1NC1=N/C(=C\c2ccc3ncsc3c2)C(=O)N1 | 2.45 µM | 2.74 µM | 0.211 µM | > 10 µM | 2.56 µM | > 10 µM | > 10 µM | 0.147 µM | 9.72 µM
2 | CN1CCCC(NC2=N/C(=C\c3ccc4ncsc4c3)C(=O)N2)C1=O (racemic) | 2.98 µM | 2.81 µM | 0.416 µM | > 10 µM | 6.08 µM | > 10 µM | > 10 µM | 0.027 µM | 3.3 µM
3 | CC1(C)CNC(=O)C1NC1=N/C(=C\c2ccc3ncsc3c2)C(=O)N1 (racemic) | 2.02 µM | 4.48 µM | 0.923 µM | > 10 µM | 3.47 µM | > 10 µM | > 10 µM | 0.028 µM | 0.854 µM
4 | O=C1NC(NC2COC2)=N/C1=C\c1ccc2ncsc2c1 | 1.43 µM | 0.491 µM | 0.614 µM | > 10 µM | 2.16 µM | 5.92 µM | > 10 µM | 0.014 µM | 0.574 µM
5 | O=C1NC(NC2CCNC2=O)=N/C1=C\c1ccc2ncsc2c1 (racemic) | 2.56 µM | 1.15 µM | 1.03 µM | > 10 µM | 3.12 µM | > 10 µM | > 10 µM | 0.033 µM | 1.66 µM
6 | Cc1ccc(CNC2=N/C(=C\c3ccc4ncsc4c3)C(=O)N2)o1 | 1.8 µM | 0.722 µM | 0.127 µM | > 10 µM | 1.63 µM | 2.81 µM |  | 0.024 µM | 1.89 µM
7 | Cn1ncc2cccc(NC3=N/C(=C\c4ccc5ncsc5c4)C(=O)N3)c21 | 4.05 µM | 1.55 µM | 0.698 µM | > 10 µM | 4.82 µM | 3.68 µM | > 10 µM | 0.073 µM | 5.63 µM
8 | CC(C)(C)NC(=O)OC12CC3CC(CC(NC4=N/C(=C\c5ccc6ncsc6c5)C(=O)N4)(C3)C1)C2 | 0.299 µM | 0.709 µM | 0.035 µM | > 10 µM | 0.127 µM | 1.8 µM | 5 µM | 0.011 µM | 0.147 µM
9 | COC(=O)[C@@H](CC(C)C)NC1=N/C(=C\c2ccc3ncsc3c2)C(=O)N1 | 5.07 µM | 0.852 µM | 0.378 µM | > 10 µM | 2.26 µM | 1.34 µM |  | 0.034 µM | 2.37 µM
10 | COC(=O)[C@H](CC(C)C)NC1=N/C(=C\c2ccc3ncsc3c2)C(=O)N1 | 1.54 µM | 1.7 µM | 0.219 µM | > 10 µM | 0.821 µM | 4.1 µM |  | 0.017 µM | 0.903 µM
11 | O=C1NC(Nc2ccc(N3CCOCC3)cc2)=N/C1=C\c1ccc2ncsc2c1 | > 10 µM | > 10 µM | > 10 µM | > 10 µM | > 10 µM | > 10 µM | > 10 µM | 4.93 µM | > 10 µM
12 | O=C1NC(NCC2CCOCC2)=N/C1=C\c1ccc2ncsc2c1 | 1.13 µM | 0.698 µM | 0.094 µM | > 10 µM | 1.29 µM | > 10 µM |  | 0.012 µM | 0.811 µM
13 | Cc1nc2ccc(/C=C3\N=C(NC4CCCCCC4)NC3=O)cc2s1 | 3.26 µM | > 10 µM | 5.63 µM | > 10 µM | > 10 µM | > 10 µM | > 10 µM | 0.034 µM | 2.28 µM
14 | CC1(C)C2CCC1(C)[C@H](NC1=N/C(=C\c3ccc4ncsc4c3)C(=O)N1)C2 (some centres not stated) | 0.223 µM | 0.738 µM | 0.017 µM | > 10 µM | 0.221 µM | > 10 µM | > 10 µM | 0.011 µM | 0.176 µM
15 | CN1CCC(CNC2=N/C(=C\c3ccc4ncsc4c3)C(=O)N2)CC1 | 1.59 µM | > 10 µM | 3.66 µM | > 10 µM | > 10 µM | > 10 µM | > 10 µM | 1.5 µM | > 10 µM
16 | CC(=O)N1CCc2ccc(NC3=N/C(=C\c4ccc5ncsc5c4)C(=O)N3)cc21 | 0.443 µM | 2.24 µM | 0.869 µM | > 10 µM | 0.705 µM | 1.83 µM | > 10 µM | 0.021 µM | 0.257 µM
17 | CC(NC1=N/C(=C\c2ccc3ncsc3c2)C(=O)N1)C12CC3CC(CC(C3)C1)C2 (racemic) | > 10 µM | 5.11 µM | 1.32 µM | > 10 µM | > 10 µM | > 10 µM | > 10 µM | 0.21 µM | > 10 µM
18 | O=C1NC(NC2CCCNC2=O)=N/C1=C\c1ccc2ncsc2c1 (racemic) | 2.8 µM | 1.68 µM | 1.32 µM | > 10 µM | 7.29 µM | > 10 µM | > 10 µM | 0.035 µM | 2.09 µM
19 | Cc1nc2ccc(/C=C3\N=C(NC45CC6CC(CC(C6)C4)C5)NC3=O)cc2s1 | 0.324 µM | > 10 µM | 1.34 µM | > 10 µM | > 10 µM | > 10 µM | > 10 µM | 0.02 µM | 0.666 µM
20 | CN1CCCC(NC2=N/C(=C\c3ccc4ncsc4c3)C(=O)N2)C1 (racemic) | 0.887 µM | 1.23 µM | 0.771 µM | > 10 µM | 7.04 µM | > 10 µM | > 10 µM | 0.18 µM | 4.76 µM
21 | O=C1NC(Nc2ncccn2)=N/C1=C\c1ccc2ncsc2c1 | 4.03 µM | 2.26 µM | 0.627 µM | > 10 µM |  | 7.74 µM | > 10 µM | 0.034 µM | 2.39 µM
22 | O=C1NC(NCc2ccccc2)=N/C1=C\c1ccc2ncsc2c1 | 1.64 µM | 0.28 µM | 0.086 µM | 6.11 µM | 1.94 µM | 2.15 µM | > 10 µM | 0.013 µM | 1.21 µM
23 | CC(C)(C)C(=O)OC12CC3CC(CC(NC4=N/C(=C\c5ccc6ncsc6c5)C(=O)N4)(C3)C1)C2 | > 10 µM | > 10 µM | 1.31 µM | > 10 µM | > 10 µM | > 10 µM | > 10 µM | 0.436 µM | > 10 µM
